Read-outs that look alike come from different tables or passages of the source.
Key:
[1] = Cytotoxicity in HepG2.117 cells, ATPlite Luminescence Assay; type: cell-based, human; conditions: human, incubated for 3 days, mean value, read-out: TOX-HepG2.117 CC50 (μM, mean value)
Protocol: Cytotoxicity of the compounds was tested using HepG2 or HepG2.117 cells, incubated for 3 days in the presence of compounds. The viability of the cells was assessed using the PERKIN ELMER ATPlite Luminescence Assay System.”

HBV = experiment: Anti-HBV activity: intracellular HBV DNA by real-time PCR in HepG2.117 cell line; type: cell-based, Hepatitis B virus; conditions: Hepatitis B virus, read-out: HBV-AVE-HepG2.117 EC50 (μM, mean value)
Protocol: The anti HBV activity was measured using the HepG2.117 cell line, a stable, inducibly HBV producing cell line, which replicates HBV in the absence of doxicycline (Tet-off system). The HepG2 cell line is available from ATCC® under number HB-8065. Transfection of the HepG2 cell line can be as described in Sun and Nassal 2006 Journal of Hepatology 45 (2006) 636-645 “Stable HepG2- and Huh7-based human hepatoma cell lines for efficient regulated expression of infectious hepatitis B virus”.
For the antiviral assay, HBV replication was induced, followed by a treatment with serially diluted compound in 96-well plates. After 3 days of treatment, the antiviral activity was determined by quantification of intracellular HBV DNA using real-time PCR and an HBV specific primer set and probe.

[2] = 72 h, HepG2.117 cells, 3 days of treatment, intracellular HBV DNA by real-time PCR, mean value

## C[C@@H]1Cc2nn3c(c2CN1C(=O)c1ccc(Cl)c(Cl)c1)C(=O)N([C@H](C)c1ccc(C#N)cc1)CC3 (relative stereo) [C88*R]
[1]
  CC50 at 3 days: > 50 µM
HBV; [2]
  EC50: 0.076 µM

## C[C@@H]1Cc2nn3c(c2CN1C(=O)c1ccc(Cl)c(Cl)c1)C(=O)N([C@@H](C)c1ccc(C#N)cc1)CC3 (relative stereo) [C88*S]
[1]
  CC50 at 3 days: > 50 µM
HBV; [2]
  EC50: 0.023 µM

## C[C@@H]1Cc2nn3c(c2CN1C(=O)c1ccc(Cl)c(Cl)c1)C(=O)N([C@H](C)c1ccc(C(F)(F)F)cc1)CC3 (relative stereo) [C105*R]
[1]
  CC50 at 3 days: 14.6 µM
HBV; [2]
  EC50: 0.059 µM

## C[C@@H]1Cc2nn3c(c2CN1C(=O)c1ccc(Cl)c(Cl)c1)C(=O)N([C@@H](C)c1ccc(C(F)(F)F)cc1)CC3 (relative stereo) [C105*S]
[1]
  CC50 at 3 days: > 50 µM
HBV; [2]
  EC50: 0.297 µM

## C[C@@H]1Cc2nn3c(c2CN1C(=O)c1ccc(Cl)c(Cl)c1)C(=O)N([C@@H](C)c1ccccc1C(F)(F)F)CC3 (relative stereo) [C123*R]
[1]
  CC50 at 3 days: 20 µM
HBV; [2]
  EC50: 0.174 µM

## C[C@@H]1Cc2nn3c(c2CN1C(=O)c1ccc(Cl)c(Cl)c1)C(=O)N([C@H](C)c1ccccc1C(F)(F)F)CC3 (relative stereo) [C123*S]
[1]
  CC50 at 3 days: 19.2 µM
HBV; [2]
  EC50: 0.517 µM

## C[C@@H]1Cc2nn3c(c2CN1C(=O)c1ccc(Cl)c(Cl)c1)C(=O)N([C@H](C)c1c[nH]nn1)CC3 (single isomer, unassigned) [Compound 31, (3R)-2-(3,4-Dichlorobenzoyl)-3-methyl-9-[(1*R)-1-(1H-1,2,3-triazol-4-yl)ethyl]-1,2,3,4,8,9-hexahydropyrido[4′,3′:3,4]pyrazolo[1,5-a]pyrazin-10(7H)-one]
[1]
  CC50 at 3 days: > 50 µM
HBV; [2]
  EC50: 0.075 µM

## C[C@@H]1Cc2nn3c(c2CN1C(=O)c1ccc(Cl)c(Cl)c1)C(=O)N([C@@H](C)c1c[nH]nn1)CC3 (single isomer, unassigned) [Compound 32, (3R)-2-(3,4-Dichlorobenzoyl)-3-methyl-9-[(1*S)-1-(1H-1,2,3-triazol-4-yl)ethyl]-1,2,3,4,8,9-hexahydropyrido[4′,3′:3,4]pyrazolo[1,5-a]pyrazin-10(7H)-one]
[1]
  CC50 at 3 days: > 50 µM
HBV; [2]
  EC50: 0.332 µM

## CN1O[C@@H](CO)Cn2nc3c(c2C1=O)CN(C(=O)c1ccc(Cl)c(Cl)c1)CC3 (single isomer, unassigned) [Compound 45, (4*R)-10-(3,4-Dichlorobenzoyl)-4-(hydroxymethyl)-2-methyl-4,5,8,9,10,11-hexahydropyrido-[4′,3′:3,4]pyrazolo[5,1-d][1,2,5]oxadiazepin-1(2H)-one]
[1]
  CC50 at 3 days: > 50 µM
HBV; [2]
  EC50: 0.192 µM

## CN1O[C@H](CO)Cn2nc3c(c2C1=O)CN(C(=O)c1ccc(Cl)c(Cl)c1)CC3 (single isomer, unassigned) [Compound 46, (4*S)-10-(3,4-Dichlorobenzoyl)-4-(hydroxymethyl)-2-methyl-4,5,8,9,10,11-hexahydropyrido-[4′,3′:3,4]pyrazolo[5,1-d][1,2,5]oxadiazepin-1(2H)-one]
[1]
  CC50 at 3 days: > 50 µM
HBV; [2]
  EC50: 0.505 µM

## O=C1NCCn2nc3c(c21)CN(C(=O)c1ccc(Cl)c(Cl)c1)CC3 [Compound 1, 2-(3,4-Dichlorobenzoyl)-1,2,3,4,8,9-hexahydropyrido[4′,3′:3,4]pyrazolo[1,5-a]pyrazin-10(7H)-one]
[1]
  CC50 at 3 days: > 50 µM
HBV; [2]
  EC50: 9.63 µM

## O=C(c1ccc(Cl)c(Cl)c1)N1CCc2nn3c(c2C1)C(=O)N(Cc1ccccc1)CC3 [Compound 3, 9-Benzyl-2-(3,4-dichlorobenzoyl)-1,2,3,4,8,9-hexahydropyrido[4′,3′:3,4]pyrazolo[1,5-a]pyrazin-10(7H)-one]
[1]
  CC50 at 3 days: 25.3 µM
HBV; HepG2.117, 72 h
  EC50: 0.188 µM

## COc1ccc(CN2CCn3nc4c(c3C2=O)CN(C(=O)c2ccc(Cl)c(Cl)c2)CC4)cc1 [Compound 4, 2-(3,4-Dichlorobenzoyl)-9-[(4-methoxyphenyl)methyl]-1,2,3,4,8,9-hexahydropyrido[4′,3′:3,4]-pyrazolo[1,5-a]pyrazin-10(7H)-one]
[1]
  CC50 at 3 days: 17.9 µM
HBV; [2]
  EC50: 0.091 µM

## CC(c1ccncc1)N1CCn2nc3c(c2C1=O)CN(C(=O)c1ccc(Cl)c(Cl)c1)CC3 (centres unmarked) [Compound 5, 2-(3,4-Dichlorobenzoyl)-9-[1-(pyridin-4-yl)ethyl]-1,2,3,4,8,9-hexahydropyrido[4′,3′:3,4-]pyrazolo[1,5-a]pyrazin-10(7H)-one]
[1]
  CC50 at 3 days: > 50 µM
HBV; [2]
  EC50: 0.213 µM

## O=C(c1ccc(Cl)c(Cl)c1)N1CCc2nn3c(c2C1)C(=O)N(Cc1nccs1)CC3 [Compound 7, 2-(3,4-Dichlorobenzoyl)-9-[(1,3-thiazol-2-yl)methyl]-1,2,3,4,8,9-hexahydropyrido[4′,3′:3,4]-pyrazolo[1,5-a]pyrazin-10(7H)-one]
[1]
  CC50 at 3 days: > 50 µM
HBV; [2]
  EC50: 0.399 µM

## O=C(c1ccc(Cl)c(Cl)c1)N1CCc2nn3c(c2C1)C(=O)N(Cc1c[nH]c2ccccc12)CC3 [Compound 8, 2-(3,4-Dichlorobenzoyl)-9-[(1H-indol-3-yl)methyl]-1,2,3,4,8,9-hexahydropyrido[4′,3′:3,4]-pyrazolo[1,5-a]pyrazin-10(7H)-one]
[1]
  CC50 at 3 days: 10.8 µM
HBV; [2]
  EC50: < 0.039 µM

## O=C(c1ccc(Cl)c(Cl)c1)N1CCc2nn3c(c2C1)C(=O)N(Cc1cccc2[nH]ccc12)CC3 [Compound 9, 2-(3,4-Dichlorobenzoyl)-9-[(1H-indol-4-yl)methyl]-1,2,3,4,8,9-hexahydropyrido[4′,3′:3,4]-pyrazolo[1,5-a]pyrazin-10(7H)-one]
[1]
  CC50 at 3 days: 16.4 µM
HBV; [2]
  EC50: 0.054 µM

## O=C(c1ccc(Cl)c(Cl)c1)N1CCc2nn3c(c2C1)C(=O)N(Cc1ccc(OC(F)F)cc1)CC3 [Compound 10, 2-(3,4-Dichlorobenzoyl)-9-{[4-(difluoromethoxy)phenyl]methyl}-1,2,3,4,8,9-hexahydropyrido-[4′,3′:3,4]pyrazolo[1,5-a]pyrazin-10(7H)-one]
[1]
  CC50 at 3 days: 7.26 µM
HBV; [2]
  EC50: 0.062 µM

## COc1ccc(CN2CCn3nc4c(c3C2=O)CN(C(=O)c2ccc(Cl)c(Cl)c2)[C@H](C)C4)cc1 [Compound 11, (3R)-2-(3,4-Dichlorobenzoyl)-9-[(4-methoxyphenyl)methyl]-3-methyl-1,2,3,4,8,9-hexahydro-pyrido[4′,3′:3,4]pyrazolo[1,5-a]pyrazin-10(7H)-one]
[1]
  CC50 at 3 days: 8.43 µM
HBV; [2]
  EC50: 0.054 µM

## C[C@@H]1Cc2nn3c(c2CN1C(=O)c1ccc(Cl)c(Cl)c1)C(=O)N(Cc1ccc(F)cc1)CC3 [Compound 12, (3R)-2-(3,4-Dichlorobenzoyl)-9-[(4-fluorophenyl)methyl]-3-methyl-1,2,3,4,8,9-hexahydro-pyrido[4′,3′:3,4]pyrazolo[1,5-a]pyrazin-10(7H)-one]
[1]
  CC50 at 3 days: 25.3 µM
HBV; [2]
  EC50: 0.066 µM

## C[C@@H]1Cc2nn3c(c2CN1C(=O)c1ccc(Cl)c(Cl)c1)C(=O)N(Cc1ccc(OC(F)F)cc1)CC3 [Compound 13, (3R)-2-(3,4-Dichlorobenzoyl)-9-{[4-(difluoromethoxy)phenyl]methyl}-3-methyl-1,2,3,4,8,9-hexahydropyrido[4′,3′:3,4]pyrazolo[1,5-a]pyrazin-10(7H)-one]
HBV; [2]
  EC50: 0.055 µM

## C[C@@H]1Cc2nn3c(c2CN1C(=O)c1ccc(Cl)c(Cl)c1)C(=O)N(Cc1ccc(OC(F)(F)F)cc1)CC3 [Compound 14, (3R)-2-(3,4-Dichlorobenzoyl)-3-methyl-9-{[4-(trifluoromethoxy)phenyl]methyl}-1,2,3,4,8,9-hexahydropyrido[4′,3′:3,4]pyrazolo[1,5-a]pyrazin-10(7H)-one]
[1]
  CC50 at 3 days: 6.96 µM
HBV; [2]
  EC50: 0.085 µM

## C[C@@H]1Cc2nn3c(c2CN1C(=O)c1ccc(Cl)c(Cl)c1)C(=O)N(Cc1ccccn1)CC3 [Compound 15, (3R)-2-(3,4-Dichlorobenzoyl)-3-methyl-9-[(pyridin-2-yl)methyl]-1,2,3,4,8,9-hexahydropyrido-[4′,3′:3,4]pyrazolo[1,5-a]pyrazin-10(71)-one]
[1]
  CC50 at 3 days: > 50 µM
HBV; [2]
  EC50: 0.055 µM

## C[C@@H]1Cc2nn3c(c2CN1C(=O)c1ccc(Cl)c(Cl)c1)C(=O)N(Cc1cccnc1)CC3 [Compound 16, (3R)-2-(3,4-Dichlorobenzoyl)-3-methyl-9-[(pyridin-3-yl)methyl]-1,2,3,4,8,9-hexahydropyrido-[4′,3′:3,4]pyrazolo[1,5-a]pyrazin-10(7H)-one]
[1]
  CC50 at 3 days: > 50 µM
HBV; [2]
  EC50: 0.079 µM

## C[C@@H]1Cc2nn3c(c2CN1C(=O)c1ccc(Cl)c(Cl)c1)C(=O)N(Cc1ccncc1)CC3 [Compound 17, (3R)-2-(3,4-Dichlorobenzoyl)-3-methyl-9-[(pyridin-4-yl)methyl]-1,2,3,4,8,9-hexahydropyrido-[4′,3′:3,4]pyrazolo[1,5-a]pyrazin-10(7H)-one]
[1]
  CC50 at 3 days: > 50 µM
HBV; HepG2.117, 72 h
  EC50: 0.436 µM

## C[C@@H]1Cc2nn3c(c2CN1C(=O)c1ccc(Cl)c(Cl)c1)C(=O)N(Cc1cccc2c1ccn2C)CC3 [Example C120]
HBV; [2]
  EC50: 0.047 µM

## COc1ccc(CN2CCn3nc4c(c3C2=O)CN(C(=O)c2ccc(Cl)c(Cl)c2)[C@H](C)C4)cc1F [Example C140]
HBV; [2]
  EC50: 0.032 µM

## COc1cc(CN2CCn3nc4c(c3C2=O)CN(C(=O)c2ccc(Cl)c(Cl)c2)[C@H](C)C4)ccc1OC(F)F [Example C205]
HBV; [2]
  EC50: 0.04 µM

## Cc1ccc(CN2CCn3nc4c(c3C2=O)CN(C(=O)c2ccc(Cl)c(Cl)c2)[C@H](C)C4)c(F)c1 [Example C206]
HBV; [2]
  EC50: 0.038 µM

From patent US20220348592A1, “FUSED HETEROCYCLIC DERIVATIVES” (Janssen Sciences Ireland Unlimited Company, priority 2019, published 2022)
